Reference: ChEMBL document CHEMBL5528024, “Comprehensive and critical view on the anti-inflammatory and immunomodulatory role of natural phenolic antioxidants” (Eur J Med Chem, 2024)
Values after ≈ are worked out from the molar mass of the structure shown. Values belong to the compound of their own block, whether it stands above or below them.

Columns and labels:
Mus musculus = experiment: Antidiabetic activity in six hour fasted type 2 diabetic C57BL/6 db/db mouse assessed as decrease in fasting blood glucose level at 250 mg/kg,po for 4 weeks by Glucose analyzer; format: functional; set-up: scale not given: the % may be the effect or the level left
Splenocyte [1] = experiment: Immunomodulatory activity in mouse splenocytes assessed as maximum effect in CD3+ T cell production at 4 microg/ml incubated for 24 hrs by flow cytometry relative to control; format: functional; conditions: dose 4 µg/ml
Splenocyte [2] = experiment: Immunomodulatory activity in mouse splenocytes assessed as maximum effect in CD4+ T cell production at 4 microg/ml incubated for 24 hrs by flow cytometry relative to control; format: functional; conditions: dose 4 µg/ml
Rattus norvegicus [3] = organism: Rattus norvegicus; experiment: Antioxidant activity in Vitamin E deficient rat model assessed as onset of ascorbate/Fe2+/ADP complex-initiated peroxidation delayed time by measuring onset of peroxidation (lag phase) at 0.25 mM by Thiobarbituric acid substance assay; format: functional
Rattus norvegicus [4] = organism: Rattus norvegicus; experiment: Antioxidant activity in Vitamin E deficient rat model assessed as onset of ascorbate/Fe2+/ADP complex-initiated peroxidation delayed time by measuring onset of peroxidation (lag phase) at 0.5 mM by Thiobarbituric acid substance assay; format: functional
Leishmania major = experiment: Antileishmanial activity against Leishmania major MHOM/IL/80/Friendlin assessed as reduction in parasite growth incubated for 24 hrs by resazurin dye based analysis; format: functional, organism-based
[5] = Inhibition of Lipoxygenase (unknown origin); set-up: species or system Homo sapiens
Alpha-synuclein = Alpha-synuclein (Homo sapiens, UniProt P37840); experiment: Inhibition of wild type full length recombinant alpha-synuclein (unknown origin) expressed in Escherichia coli by spectrophotometric analysis
Rattus norvegicus [6] = experiment: Anti-inflammatory activity against serotonin-induced paw edema in Sprague-Dawley rat assessed as inhibition of paw edema at 10 mg/kg, po measured after 5 hrs relative to control; format: functional; set-up: scale not given: the % may be the effect or the level left

Compound: O=C(/C=C/c1ccc(O)c(O)c1)O[C@@H]1C[C@](O)(C(=O)O)C[C@@H](O)[C@H]1O [CHLOROGENIC ACID]
Activity (Mus musculus): 31%

Compound: O=c1c(O)c(-c2ccc(O)c(O)c2)oc2cc(O)ccc12 [FISETIN]
Activity (Splenocyte [1]): 39.62% | Activity (Splenocyte [2]): 28.92%

Compound: O=c1c(O)c(-c2cc(O)c(O)c(O)c2)oc2cc(O)cc(O)c12 [MYRICETIN]
Time (Rattus norvegicus [3]): 12.6 min | Time (Rattus norvegicus [4]): 14.3 min

Compound: O=c1oc2c(O)c(O)cc3c(=O)oc4c(O)c(O)cc1c4c23 [ELLAGIC ACID]
EC50 (Leishmania major): 0.9 µg/mL (≈ 2.98 µM)

IC50 [5]: 45.3 µM
Compound: COc1cc(/C=C/C(=O)CC(=O)/C=C/c2ccc(O)c(OC)c2)ccc1O [CURCUMIN]

IC50 (Alpha-synuclein): 13 µM
Compound: COc1cc(/C=C/C(=O)O)ccc1O [FERULATE]

Compound: O=C(O)c1cc(O)c(O)c(O)c1 [GALLIC ACID]
EC50 (Leishmania major): 5 µg/mL (≈ 29.4 µM)

Compound: COc1ccc2c(c1)c(CC(=O)O)c(C)n2C(=O)c1ccc(Cl)cc1 [INDOMETHACIN]
Activity (Rattus norvegicus [6]): 34.2%
